Results as given in patent publication US20160022665A2, “Pharmaceutical Compositions and Administrations Thereof” (Vertex Pharmaceuticals Incorporated, priority 2012, published 2016).

Legend:
ΔF508-CFTR = biological target: T1, ΔF508-CFTR (Homo sapiens, UniProt P13569, DEL508-508); test: Membrane potential optical assay (fluorescent voltage sensing dyes, FLIPR III), identification of potentiator compounds (Protocol 1); type: cell-based
T1 construct: expressed in transfected cells
Description: The assay utilizes fluorescent voltage sensing dyes to measure changes in membrane potential using a fluorescent plate reader (e.g., FLIPR III, Molecular Devices, Inc.) as a readout for increase in functional ΔF508-CFTR in NIH 3T3 cells. The driving force for the response is the creation of a chloride ion gradient in conjunction with channel activation by a single liquid addition step after the cells have previously been treated with compounds and subsequently loaded with a voltage sensing dye.
To identify potentiators of ΔF508-CFTR, a double-addition HTS assay format was developed. This HTS assay utilizes fluorescent voltage sensing dyes to measure changes in membrane potential on the FLIPR III as a measurement for increase in gating (conductance) of ΔF508 CFTR in temperature-corrected ΔF508 CFTR NIH 3T3 cells. The driving force for the response is a Cl^− ion gradient in conjunction with channel activation with forskolin in a single liquid addition step using a fluorescent plate reader such as FLIPR III after the cells have previously been treated with potentiator compounds (or DMSO vehicle control) and subsequently loaded with a redistribution dye.
Bath Solution #1: (in mM) NaCl 160, KCl 4.5, CaCl2 2, MgCl2 1, HEPES 10, pH 7.4 with NaOH.
Chloride-free bath solution: Chloride salts in Bath Solution #1 (above) are substituted with gluconate salts. […]

[1] = Physical and chemical stability of Compound 3 in aqueous methylcellulose formulations; type: physicochemical; conditions: for physical stability of the HCl salt form in suspension: 0.5% methylcellulose/0.5% polysorbate 80 suspension vehicle, T(0), XRPD and 1H NMR
Protocol: A 100 mL stock solution of 0.5% by weight methylcellulose was prepared by stirring 0.5 g of methylcellulose with 99.5 g of purified water until completely dissolved (approximately 24 hours). The appropriate amount of Compound 3 HCl salt based on free base was weighed and transferred to a scintillation vial. The desired amount of 0.5% methylcellulose stock solution for making a 6 mg/mL based on free base (6.48 mg/mL based on HCl salt) was transferred into the vial and sonicated for 20 minutes and homogenized for approximately 5 minutes.
Methylcellulose (0.5 g) was combined with 99.0 g of purified water in a beaker and stirred in a 60-70° C. water bath for 30′-1 hr. The solution was stirred in a 0° C. ice/water bath for another 30′ or until clear. Polysorbate 80 (0.5 g) was added and stirring at room temperature followed for 30′-1 hr or until a clear solution was obtained.
The appropriate amount of Compound 3 HCl salt based on free base was weighed and transferred to a scintillation vial. The desired amount of 0.5% methylcellulose and 0.5% polysorbate 80 stock solution for making a 6 mg/mL based on free base (6.48 mg/mL based on HCl salt) was transferred into the vial and sonicated for 20 minutes with alternate stirring for 1-2 minutes. The solution was homogenized for approximately 1-2 minutes.

T1 sequence (P13569 with tags, fused parts or gaps DEL508-508): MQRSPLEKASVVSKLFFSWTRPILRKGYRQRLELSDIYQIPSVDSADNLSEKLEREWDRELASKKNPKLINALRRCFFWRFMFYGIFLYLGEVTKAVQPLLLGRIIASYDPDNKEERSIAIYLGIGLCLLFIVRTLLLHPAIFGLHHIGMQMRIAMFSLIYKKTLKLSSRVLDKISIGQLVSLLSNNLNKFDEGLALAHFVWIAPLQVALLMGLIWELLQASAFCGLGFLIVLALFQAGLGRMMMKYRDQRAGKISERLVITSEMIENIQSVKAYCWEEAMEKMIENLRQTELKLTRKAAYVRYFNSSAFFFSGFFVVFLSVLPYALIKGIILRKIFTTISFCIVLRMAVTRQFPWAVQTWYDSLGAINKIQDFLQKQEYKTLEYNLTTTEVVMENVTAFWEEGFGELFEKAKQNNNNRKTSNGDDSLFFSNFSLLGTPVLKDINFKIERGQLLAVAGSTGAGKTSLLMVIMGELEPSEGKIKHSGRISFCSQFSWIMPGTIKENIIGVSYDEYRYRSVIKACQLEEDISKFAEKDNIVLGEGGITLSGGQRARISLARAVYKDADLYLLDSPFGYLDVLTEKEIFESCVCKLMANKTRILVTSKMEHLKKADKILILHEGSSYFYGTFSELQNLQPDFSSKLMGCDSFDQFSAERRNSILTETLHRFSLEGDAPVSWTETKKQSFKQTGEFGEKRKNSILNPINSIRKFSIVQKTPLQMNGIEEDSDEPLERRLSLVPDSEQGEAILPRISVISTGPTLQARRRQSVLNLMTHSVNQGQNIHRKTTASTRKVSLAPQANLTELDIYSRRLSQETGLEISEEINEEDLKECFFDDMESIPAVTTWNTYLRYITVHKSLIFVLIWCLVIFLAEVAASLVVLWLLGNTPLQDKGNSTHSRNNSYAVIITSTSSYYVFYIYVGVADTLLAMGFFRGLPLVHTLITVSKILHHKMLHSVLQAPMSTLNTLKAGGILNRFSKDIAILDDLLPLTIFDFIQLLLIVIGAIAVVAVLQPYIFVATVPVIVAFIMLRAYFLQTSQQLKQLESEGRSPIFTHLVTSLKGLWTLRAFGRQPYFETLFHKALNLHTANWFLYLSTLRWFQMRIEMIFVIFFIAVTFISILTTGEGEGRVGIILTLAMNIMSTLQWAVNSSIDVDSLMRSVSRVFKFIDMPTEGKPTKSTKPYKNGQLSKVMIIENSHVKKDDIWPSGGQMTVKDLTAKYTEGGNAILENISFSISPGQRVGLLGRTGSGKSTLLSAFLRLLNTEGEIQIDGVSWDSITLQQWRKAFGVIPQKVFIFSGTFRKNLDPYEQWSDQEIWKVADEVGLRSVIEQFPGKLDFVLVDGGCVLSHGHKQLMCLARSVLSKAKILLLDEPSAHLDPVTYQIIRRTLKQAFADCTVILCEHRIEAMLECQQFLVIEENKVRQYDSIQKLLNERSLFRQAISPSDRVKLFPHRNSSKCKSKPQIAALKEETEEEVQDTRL

SMILES: CC(C)(C)c1cc(C(C)(C)C)c(NC(=O)c2c[nH]c3ccccc3c2=O)cc1O [Compound 1, N-[2,4-bis(1,1-dimethylethyl)-5-hydroxyphenyl]-1,4-dihydro-4-oxoquinoline-3-carboxamide]
- Emax (ΔF508-CFTR; Compound 1, potentiator activity, Protocol 1, read-out: % Activity (relative efficacy)): 25 to 100%

SMILES: O=C(Nc1ccc(N2C3CCC2[C@H](O)C3)cc1C(F)(F)F)c1c[nH]c2cccc(C(F)(F)F)c2c1=O (stereo partly drawn) [Compound 2-5]
- % Efficacy (ΔF508-CFTR; compounds of Formula II, 100% efficacy is the maximum response obtained with 4-methyl-2-(5-phenyl-1H-pyrazol-3-yl)phenol): +++ (“+++” if efficacy was calculated to be greater than 100%)

SMILES: Cc1ccc(NC(=O)C2(c3ccc4c(c3)OC(F)(F)O4)CC2)nc1-c1cccc(C(=O)O)c1 [Compound 3 Form I, 3-(6-(1-(2,2-difluorobenzo[d][1,3]dioxol-5-yl)cyclopropanecarboxamido)-3-methylpyridin-2-yl)benzoic acid]
- chemically stable (time) ([1]; room temperature, 0.5% methylcellulose/0.5% polysorbate 80 formulation vehicle, no sign of chemical degradation): at least 24 hrs
- physically and chemically stable (time) ([1]; room temperature, methylcellulose formulation (0.5% by weight), no sign of chemical degradation): at least 24 hrs

SMILES: Cc1ccc(NC(=O)C2(c3ccc4c(c3)OC(F)(F)O4)CC2)nc1-c1cccc(C(=O)O)c1.Cl [Compound 3 HCl salt, 3-(6-(1-(2,2-Difluorobenzo[d][1,3]dioxol-5-yl)cyclopropanecarboxamido)-3-methylpyridin-2-yl)benzoic acid.HCl salt]
- physical stability of the HCl salt form in suspension [1]: not physically stable
- physical stability of the HCl salt form in suspension ([1]; listed as HCl salt): quickly converted to Compound 3 Form I
